Experiments:
[1] = target: LZK (Homo sapiens (Human), UniProt O43283); test: LZK biochemical assay (TR-FRET, MKK7 phosphorylation)
Description: LZK assay is a biochemical assay format designed to screen for inhibitors of LZK. Enzymatic activity of LZK was measured by monitoring phosphorylation of the physiological substrate MKK7 (MAP2K7, Dual specificity mitogen-activated protein kinase kinase 7). Phosphorylation was detected by a TR-FRET system whereby His-tagged MKK7 was labeled by a XL665-labeled anti-His antibody (FRET acceptor, emission 665 nm). LZK phosphorylates MKK7 at T275/S277 which were detected by an Eu-labeled anti-phospho-MKK7 (T275/S277) antibody (FRET donor, excitation 340 nm). Phosphorylation of MKK7 results in an increased TR-FRET signal (Ratio XL665-channel/Eu-channel) and inhibition of enzymatic activity of LZK decreases the TR-FRET signal.
Assay Protocol for 384 low volume MTP format: 1 μl of test compound was pipetted into test plate; +5 μl LZK solution (10 nM LZK, catalytic domain, Carna Biosiences in assay buffer); +5 μl substrate solution (15 nM MKK7, LDB; 15 μM ATP, in assay buffer); 90 min incubation at RT; +5 μl detection mix (20 nM XL665-labeled anti-His antibody, Cisbio; 0.4 nM Eu-labeled anti-phospho-MKK7 (T275/S277), Cisbio/Millipore in detection buffer), 16 h incubation at 32° C.; endpoint measurement BMG (HTRF).
(§1) All indicated concentrations final concentrations.
Assay buffer (384 format): 50 mM Hepes pH 7.5, 10 mM MgCl2, 1 mM EGTA, 1 mM DTT, 0.01% Triton X-100, 0.01% BSA, 1:500 Smart Block.
(§2) Detection buffer: 25 mM Tris/HCl pH 7.5, 100 mM EDTA, 100 mM NaCl, 200 mM KF, 0.01% Tween 20, 1:500 Smart Block.

[2] = target: DLK (Homo sapiens (Human), UniProt Q12852); test: DLK biochemical assay (TR-FRET, MKK7 phosphorylation)
Description: DLK assay is a biochemical assay format designed to screen for inhibitors of DLK. Enzymatic activity of DLK was measured by monitoring phosphorylation of the physiological substrate MKK7 (MAP2K7, Dual specificity mitogen-activated protein kinase kinase 7). Phosphorylation was detected by a TR-FRET system whereby His-tagged MKK7 was labeled by a XL665-labeled anti-His antibody (FRET acceptor, emission 665 nm). DLK phosphorylates MKK7 at T275/S277, which was detected by an Eu-labeled anti-phospho-MKK7 (T275/S277) antibody (F RET donor, excitation 340 nm). Phosphorylation of MKK7 results in an increased TR-FRET signal (Ratio XL665-channel/Eu-channel) and inhibition of enzymatic activity of DLK decreases the TR-FRET signal.
Assay Protocol for 1536 MTP format: test compounds were predispensed (60 nl) in test plates; +3 μl DLK solution (10 nM DLK, catalytic domain, Carna Biosiences, 0.6 mM DTT in assay buffer); +2 μl substrate solution (15 nM MKK7, LDB; 60 μM ATP; 0.4 mM DTT in assay buffer); 90 min incubation at RT; +2 μl detection mix (5 nM XL665-labeled anti-His antibody, Cisbio; 0.1 nM Eu-labeled anti-phospho-MKK7 (T275/S277), Cisbio/Millipore in detection buffer); 16 h incubation at 37° C.; endpoint measurement BMG (HTRF).
Assay Protocol for 384 low volume MTP format: 1 μl of test compounds were pipetted into test plate; +5 μl DLK solution (10 nM DLK, catalytic domain, Carna Biosiences in assay buffer); +5 μl substrate solution (15 nM MKK7, LDB; 60 μM ATP, in assay buffer); 90 min incubation at RT; +9 μl detection mix (20 nM XL665-labeled anti-His antibody, Cisbio; 0.4 nM Eu-labeled anti-phospho-MKK7 (T275/S277), Cisbio/Millipore in detection buffer); 16 h incubation at 4° C.; endpoint measurement BMG (HTRF).
as §1
Assay buffer (384 format): 50 mM Hepes pH 7.5, 10 mM MgCl2, 1 mM EGTA, 1 mM DTT, 0,01% Triton X-100, 0.01% BSA, 1:500 Smart Block.
as §2

Sequence of DLK (Q12852 1-520): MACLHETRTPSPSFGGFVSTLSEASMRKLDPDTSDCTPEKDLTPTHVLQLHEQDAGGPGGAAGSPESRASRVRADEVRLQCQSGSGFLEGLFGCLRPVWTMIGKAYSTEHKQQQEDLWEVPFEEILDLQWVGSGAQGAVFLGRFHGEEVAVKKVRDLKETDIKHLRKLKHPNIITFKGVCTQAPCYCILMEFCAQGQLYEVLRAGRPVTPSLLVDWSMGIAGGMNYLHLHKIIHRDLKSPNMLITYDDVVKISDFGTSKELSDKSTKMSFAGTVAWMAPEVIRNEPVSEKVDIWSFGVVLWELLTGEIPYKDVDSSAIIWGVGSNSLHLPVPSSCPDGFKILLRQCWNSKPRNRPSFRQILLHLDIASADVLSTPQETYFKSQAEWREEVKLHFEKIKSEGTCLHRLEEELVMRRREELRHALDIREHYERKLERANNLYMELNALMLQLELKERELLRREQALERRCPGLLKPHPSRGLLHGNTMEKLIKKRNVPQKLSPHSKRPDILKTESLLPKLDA
Sequence of LZK (O43283 168-409): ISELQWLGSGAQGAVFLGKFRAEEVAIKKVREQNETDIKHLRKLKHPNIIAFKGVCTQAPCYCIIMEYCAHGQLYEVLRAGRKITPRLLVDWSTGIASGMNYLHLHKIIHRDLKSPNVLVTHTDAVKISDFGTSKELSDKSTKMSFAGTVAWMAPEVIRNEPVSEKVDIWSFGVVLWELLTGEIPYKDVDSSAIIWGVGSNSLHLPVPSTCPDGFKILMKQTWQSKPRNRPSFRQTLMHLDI

## Nc1nc2ccc(-c3csc(C(=O)NCc4ccc(F)c(F)c4)c3)cn2n1 [Compound 212]
[1]
  IC50: 9.6 µM
[2]
  IC50: 1.07 µM

## Nc1nc2c(C(=O)NC3CCNC3)cc(-c3csc(C(=O)NCc4ccccc4)c3)cn2n1 (stereo not shown) [Compound 36]
[1]
  IC50: 0.84 µM
[2]
  IC50: 0.23 µM

## CC(C)NS(=O)(=O)c1cc(-c2csc(C(=O)N[C@@H](C)c3ccc(F)cc3)c2)cn2nc(N)nc12 [Compound 384]
[1]
  IC50: > 30 µM
[2]
  IC50: > 30 µM

## COc1ccnc(CNC(=O)c2cc(-c3ccc4nc(N)nn4c3)cs2)c1 [Compound 256]
[1]
  IC50: 17 µM
[2]
  IC50: 1.6 µM

## CCn1ccc(C(C)NC(=O)c2cc(-c3ccc4nc(N)nn4c3)cs2)n1 (stereo not shown) [Compound 331]
[1]
  IC50: 13 µM
[2]
  IC50: 0.91 µM

## CCNC(=O)c1cc(-c2csc(C(=O)NCc3cccc(OC)c3)c2)cn2nc(N)nc12 [Compound 6]
[1]
  IC50: 1.1 µM
[2]
  IC50: 0.084 µM

## CC[C@@H](NC(=O)c1cc(-c2cc(C(=O)N[C@H]3CCOC3)c3nc(N)nn3c2)cs1)c1ccc(F)cc1 [Compound 135]
[1]
  IC50: 0.25 µM
[2]
  IC50: 0.0074 µM

## Nc1nc2ccc(-c3csc(C(=O)NC4CCOc5ccccc54)c3)cn2n1 (stereo not shown) [Compound 317]
[1]
  IC50: 3.6 µM
[2]
  IC50: 0.097 µM

## Nc1nc2ccc(-c3csc(C(=O)Nc4ccccc4OC(F)(F)F)c3)cn2n1 [Compound 286]
[1]
  IC50: > 30 µM
[2]
  IC50: 0.6 µM

## Nc1nc2c(C(F)(F)F)cc(-c3csc(C(=O)NC4CCCCC4)c3)cn2n1 [Compound 379]
[1]
  IC50: 20 µM
[2]
  IC50: 0.97 µM

## CC(C)(C)NC(=O)c1cc(-c2csc(C(=O)NCc3ccc(F)cc3)c2)cn2nc(N)nc12 [Compound 15]
[1]
  IC50: 0.15 µM
[2]
  IC50: 0.058 µM

## COc1ccccc1NC(=O)c1cc(-c2ccc3nc(N)nn3c2)cs1 [Compound 228]
[1]
  IC50: > 30 µM
[2]
  IC50: 0.48 µM

## Nc1nc2c(C(=O)NC3CCC3)cc(-c3csc(C(=O)NCc4ccccc4)c3)cn2n1 [Compound 52]
[1]
  IC50: 0.235 µM
[2]
  IC50: 0.0205 µM

## CC(C)NC(=O)c1cc(-c2csc(C(=O)N[C@@H](C)c3ccc(F)cc3)c2)cc2nc(N)nn12 [Compound 147]
[1]
  IC50: 0.1 µM
[2]
  IC50: 0.021 µM

## Nc1nc2ccc(-c3csc(C(=O)NC(c4ccc(F)cc4)C(F)(F)F)c3)cn2n1 (stereo not shown) [Compound 336]
[1]
  IC50: > 30 µM
[2]
  IC50: 0.29 µM

## C[C@H](NC(=O)c1cc(-c2cc(C(=O)NC3CCNC3)c3nc(N)nn3c2)cs1)c1ccc(F)cc1 (single isomer, unassigned) [Compound 66]
[1]
  IC50: 3.5 µM
[2]
  IC50: 0.088 µM

## C[C@H](NC(=O)c1cc(-c2cc(C(=O)NC(C)(C)C)c3nc(N)nn3c2)cs1)c1ccccc1 [Compound 18]
[1]
  IC50: 0.11 µM
[2]
  IC50: 0.012 µM

## C[C@H](NC(=O)c1cc(-c2ccc3nc(N)nn3c2)cs1)c1nc2ccccc2o1 [Compound 358]
[1]
  IC50: 1.2 µM
[2]
  IC50: 0.11 µM

## CC(C)NC(=O)c1cc(-c2csc(C(=O)NC3CC(C)(C)Oc4ccccc43)c2)cn2nc(N)nc12 (stereo not shown) [Compound 131]
[1]
  IC50: 1.5 µM
[2]
  IC50: 0.063 µM

## CC(NC(=O)c1cc(-c2csc(C(=O)N[C@@H](C)c3ccccc3)c2)cn2nc(N)nc12)C(F)(F)F (single isomer, unassigned) [Compound 71]
[1]
  IC50: 0.055 µM
[2]
  IC50: 0.00485 µM

## CC(NC(=O)c1cc(-c2ccc3nc(N)nn3c2)cs1)c1ccc(F)cc1 (stereo not shown) [Compound 303]
[1]
  IC50: 1.8 µM
[2]
  IC50: 0.13 µM

## C[C@H](NC(=O)c1cc(-c2cc(C(=O)NC(C)(C)CO)c3nc(N)nn3c2)cs1)c1ccccc1 [Compound 79]
[1]
  IC50: 0.21 µM
[2]
  IC50: 0.0115 µM

## CC[C@H](NC(=O)c1cc(-c2cc(-c3cnn(CC(F)(F)F)c3)n3nc(N)nc3c2)cs1)c1ccc(F)cc1 [Compound 402]
[1]
  IC50: 1.9 µM
[2]
  IC50: 0.069 µM
